According to patent US7723329B2, “Substituted-3-sulfonylindazole derivatives as 5-hydroxytryptamine-6 ligands” (Wyeth LLC, priority 2005, dated 2010):
pKi: −log10 of the molar value. Counter-ions that a name gives are not always drawn.

How the values were obtained:
[1] = molecular target: T1, human cloned 5-HT6 receptors (Homo sapiens, UniProt P50406); assay: 5-HT6 binding affinity, [3H]-LSD displacement; details: membranes of Hela cells expressing human cloned 5-HT6 receptors; [3H]-LSD 3.0 nM; 120 minutes at room temperature
T1 construct: expressed in transfected cells; host or cells: HeLa cells
T1 sequence (P50406 whole entry): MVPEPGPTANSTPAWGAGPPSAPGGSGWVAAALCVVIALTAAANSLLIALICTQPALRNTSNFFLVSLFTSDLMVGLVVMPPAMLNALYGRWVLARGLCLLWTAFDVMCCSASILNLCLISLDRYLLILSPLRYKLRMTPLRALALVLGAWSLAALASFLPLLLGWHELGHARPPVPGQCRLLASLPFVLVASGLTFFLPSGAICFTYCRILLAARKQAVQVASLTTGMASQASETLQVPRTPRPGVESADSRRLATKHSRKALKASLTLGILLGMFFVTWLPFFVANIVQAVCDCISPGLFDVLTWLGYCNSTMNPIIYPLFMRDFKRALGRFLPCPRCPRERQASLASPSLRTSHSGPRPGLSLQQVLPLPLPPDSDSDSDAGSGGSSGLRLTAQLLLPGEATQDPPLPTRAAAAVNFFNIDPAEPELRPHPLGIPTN

SMILES	melting point	pKi [1]
O=S(=O)(c1cccc2ccccc12)c1n[nH]c2ccc(CN3CCNCC3)cc12 (as salt: hydrochloride) [Example 195, 3-(1-Naphthylsulfonyl)-5-(piperazin-1-ylmethyl)-1H-indazole]	> 200 °C	–
CN(C)CCc1ccc2[nH]nc(S(=O)(=O)c3ccccc3)c2c1 (as salt: hydrochloride) [Example 176, N,N-Dimethyl-N-{2-[3-(phenylsulfonyl)-1H-indazol-5-yl]ethyl}amine hydrochloride]	108 to 110 °C	–
CN(C)CCCc1ccc2[nH]nc(S(=O)(=O)c3ccccc3)c2c1 (as salt: trifluoroacetate) [Example 177, N,N-Dimethyl-N-{3-[3-(phenylsulfonyl)-1H-indazol-5-yl]propyl}amine trifluoroacetate]	75 to 80 °C	–
NCCCCc1ccc2[nH]nc(S(=O)(=O)c3ccccc3)c2c1 (as salt: hydrochloride) [Example 181, {4-[3-(Phenylsulfonyl)-1H-indazol-5-yl]butyl}amine hydrochloride]	120 to 125 °C	–
O=S(=O)(c1ccccc1)c1n[nH]c2c(CCNC3CC3)cccc12 (as salt: hydrochloride) [Example 172, N-{2-[3-(phenylsulfonyl)-1H-indazol-7-yl]ethyl}cyclopropanamine hydrochloride]	115 to 117 °C	–
CCNCCOc1ccc2[nH]nc(S(=O)(=O)c3ccccc3)c2c1 (as salt: hydrochloride) [Example 4, [2-(3-Benzenesulfonyl-1H-indazol-5-yloxy)-ethyl]-ethyl-amine]	248 to 250 °C (dec.)	–
O=C(c1ccc2[nH]nc(S(=O)(=O)c3cccc4ccccc34)c2c1)N1CCNCC1 (as salt: hydrochloride) [Example 202, 3-(1-Naphthylsulfonyl)-5-(piperazin-1 ylcarbonyl)-1H-indazole]	> 200 °C	–
CCN(CC)CCOc1cccc2c(S(=O)(=O)c3ccccc3)nn(Cc3cccc(Cl)c3)c12 [Example 84]	–	< 7.35
NCCOc1cc(F)cc2c(S(=O)(=O)c3cccc4ccccc34)nn(Cc3cccc(Cl)c3)c12 [Example 106, (2-{[1-(3-Chlorobenzyl)-5-fluoro-3-(1-naphthylsulfonyl)-1H-indazol-7-yl]oxy}ethyl)amine]	–	< 7.35
CCNCCOc1ccc2c(c1)c(S(=O)(=O)c1cccc3ccccc13)nn2C [Example 44, Ethyl-{2-[1-methyl-3-(naphthalene-1-sulfonyl)-1H-indazol-5-yloxy]-ethyl}-amine]	–	8.00 to 11.00
CCN(CC)CCOc1ccc2c(c1)c(S(=O)(=O)c1cccc3ccccc13)nn2C [Example 43, Diethyl-{2-[1-methyl-3-(naphthalene-1-sulfonyl)-1H-indazol-5-yloxy]-ethyl}-amine]	–	8.00 to 11.00
NCCOc1cc(F)cc2c(S(=O)(=O)c3ccccc3)n[nH]c12 [Example 140]	–	8.00 to 11.00
CCCCNCCOc1ccc2[nH]nc(S(=O)(=O)c3ccccc3)c2c1 [Example 7, [2-(3-Benzenesulfonyl-1H-indazol-5-yloxy)-ethyl]-butyl-amine]	–	7.46 to 7.59
O=S(=O)(c1cccc2ccccc12)c1n[nH]c2ccc(OCCN3CCCC3)cc12 [Example 37, 3-(Naphthalene-1-sulfonyl)-5-(2-pyrrolidin-1-yl-ethoxy)-1H-indazole]	–	8.00 to 11.00
CN(C)CCN(C)Cc1ccc2[nH]nc(S(=O)(=O)c3cccc4ccccc34)c2c1 [Example 153, N,N, N′-Trimethyl-N′-{[3-(1-naphthylsulfonyl)-1H-indazol-5-yl]methyl}ethane-1,2-diamine]	–	7.60 to 7.96
CNCCOc1ccc2[nH]nc(S(=O)(=O)c3ccccc3)c2c1 [Example 12, [2-(3-Benzenesulfonyl-1H-indazol-5-yloxy)-ethyl]-methyl-amine]	–	7.60 to 7.96
NCCCCOc1ccc2[nH]nc(S(=O)(=O)c3cccc4ccccc34)c2c1 [Example 68, (4-{[3-(1-naphthylsulfonyl)-1H-indazol-5-yl]oxy}butyl)amine]	–	8.00 to 11.00
O=S(=O)(c1cccc2ccccc12)c1nn(Cc2cccc(Cl)c2)c2c(OCCCN3CCCC3)cccc12 [Example 133]	–	7.60 to 7.96
O=S(=O)(c1ccccc1)c1n[nH]c2ccc(OCCN3CCCCC3)cc12 [Example 3, 3-Benzenesulfonyl-5-(2-piperidin-1-yl-ethoxy)-1H-indazole]	–	7.46 to 7.59
CC(C)NCCCc1ccc2[nH]nc(S(=O)(=O)c3ccccc3)c2c1 [Example 179, N-Isopropyl-N-{3-[3-(phenylsulfonyl)-1H-indazol-5-yl]propyl}amine trifluoroacetate]	–	< 7.35
NCCOc1cccc2c(S(=O)(=O)c3ccccc3)n[nH]c12 [Example 139]	–	8.00 to 11.00
CNCCOc1cccc2c(S(=O)(=O)c3cccc4ccccc34)nn(Cc3cccc(Cl)c3)c12 [Example 70, (2-{[1-(3-Chlorobenzyl)-3-(1-naphthylsulfonyl)-1-H-indazol-7-yl]oxy}ethyl) methylamine]	–	7.60 to 7.96
CCNCCOc1ccc2c(c1)c(S(=O)(=O)c1cccc3ccccc13)nn2Cc1cccc(Cl)c1 [Example 60, {2-[1-(3-Chloro-benzyl)-3-(naphthalene-1-sulfonyl)-1H-indazol-5-yloxy]-ethyl}-ethyl-amine]	–	7.60 to 7.96
O=S(=O)(c1cccc2ccccc12)c1n[nH]c2ccc(OCCCCN3CCCCC3)cc12 [Example 61, 3-(1-naphthylsulfonyl)-5-(4-piperidin-1-ylbutoxy)-1H-indazole]	–	8.00 to 11.00

SMILES	melting point	pKi [1]
Cn1nc(S(=O)(=O)c2cccc3ccccc23)c2cccc(OCCN3CCCC3)c21 [Example 100]	–	7.60 to 7.96
CN(C)CCOCc1ccc2[nH]nc(S(=O)(=O)c3cccc4ccccc34)c2c1 [Example 156, N,N-Dimethyl-2-{[3-(1-naphthylsulfonyl)-1H-indazol-5-yl]methoxy}ethanamine]	–	8.00 to 11.00
CN(C)CCC(=O)Nc1cccc2c(S(=O)(=O)c3cccc4ccccc34)n[nH]c12 [Example 162, 3-Dimethylamino-N-[3-(naphthalene-1-sulfonyl)-1H-indazol-7-yl]-propionamide hydrochloride]	–	8.00 to 11.00
CN(C)CCOc1cccc2c(S(=O)(=O)c3cccc4ccccc34)nn(C)c12 [Example 96]	–	< 7.35
CNCCOc1cccc2c(S(=O)(=O)c3ccccc3)n[nH]c12 [Example 88]	–	8.00 to 11.00
CCNCCOc1ccc2c(c1)c(S(=O)(=O)c1cccc3ccccc13)nn2Cc1ccccc1 [Example 53, {2-[1-Benzyl-3-(naphthalene-1-sulfonyl)-1H-indazol-5-yloxy]-ethyl}-ethyl-amine]	–	7.60 to 7.96
CCN(CC)CCOc1ccc2[nH]nc(S(=O)(=O)c3cccc4ccccc34)c2c1 [Example 33, Diethyl-{2-[3-(naphthalene-1-sulfonyl)-1H-indazol-5-yloxy]-ethyl}-amine]	–	8.00 to 11.00
O=C(CCN1CCCCC1)Nc1cccc2c(S(=O)(=O)c3cccc4ccccc34)n[nH]c12 [Example 163, N-[3-(Naphthalene-1-sulfonyl)-1H-indazol-7-yl]-3-piperidin-1-yl-propionamide hydrochloride]	–	7.60 to 7.96
NCCCc1ccc2[nH]nc(S(=O)(=O)c3ccccc3)c2c1 [Example 180, {3-[3-(Phenylsulfonyl)-1H-indazol-5-yl]propyl}amine trifluoroacetate]	–	7.60 to 7.96
NCCOc1ccc2[nH]nc(S(=O)(=O)c3ccccc3)c2c1 [Example 13, 2-(3-Benzenesulfonyl-1H-indazol-5-yloxy)-ethylamine]	–	7.35 to 7.44
CC1CN(Cc2ccc3[nH]nc(S(=O)(=O)c4cccc5ccccc45)c3c2)CC(C)N1 (stereo not drawn) [Example 198]	–	8.00 to 11.00
O=S(=O)(c1cccc2ccccc12)c1n[nH]c2c(OCCN3CCCCC3)cccc12 [Example 80]	–	8.00 to 11.00
CC(C)NCCOc1ccc2c(c1)c(S(=O)(=O)c1cccc3ccccc13)nn2Cc1cccc(Cl)c1 [Example 57, {2-[1-(3-Chloro-benzyl)-3-(naphthalene-1-sulfonyl)-1H-indazol-5-yloxy]-ethyl}-isopropyl-amine]	–	7.35 to 7.44
O=S(=O)(c1cccc2ccccc12)c1n[nH]c2ccc(CN[C@H]3CCNC3)cc12 [Example 154, (3S)—N-{([3-(1-Naphthylsulfonyl)-1H-indazol-5-yl]methyl}pyrrolidin-3-amine Hydrochloride]	–	7.60 to 7.96
CCNCCOc1ccc2[nH]nc(S(=O)(=O)c3cccc4ccccc34)c2c1 [Example 32, Ethyl-{2-[3-(naphthalene-1-sulfonyl)-1H-indazol-5-yloxy]-ethyl}-amine]	–	8.00 to 11.00
CNCCOc1cc(OC)cc2c(S(=O)(=O)c3cccc4ccccc34)nn(Cc3cccc(Cl)c3)c12 [Example 119]	–	< 7.35
O=S(=O)(c1cccc2ccccc12)c1n[nH]c2ccc(OCCNC3CCCC3)cc12 [Example 35, Cyclopentyl-{2-[3-(naphthalene-1-sulfonyl)-1H-indazol-5-yloxy]-ethyl}-amine]	–	8.00 to 11.00
O=S(=O)(c1ccccc1)c1nn(Cc2cccc(Cl)c2)c2c(OCCN3CCCCC3)cccc12 [Example 87]	–	< 7.35
CCNCCOc1cc(F)cc2c(S(=O)(=O)c3cccc4ccccc34)n[nH]c12 [Example 114]	–	8.00 to 11.00
O=S(=O)(c1cccc2ccccc12)c1n[nH]c2ccc(OCCN3CCCCC3)cc12 [Example 38, 3-(Naphthalene-1-sulfonyl)-5-(2-piperidin-1-yl-ethoxy)-1H-indazole]	–	8.00 to 11.00
CCNCCOc1cc(OC)cc2c(S(=O)(=O)c3cccc4ccccc34)nn(Cc3cccc(Cl)c3)c12 [Example 120]	–	< 7.35
NCCC(=O)Nc1cccc2c(S(=O)(=O)c3cccc4ccccc34)n[nH]c12 [Example 164, 3-Amino-N-[3-(naphthalene-1-sulfonyl)-1H-indazol-7-yl]-propionamide hydrochloride]	–	8.00 to 11.00
O=S(=O)(c1cccc2ccccc12)c1n[nH]c2cc(OCCN3CCCC3)ccc12 [Example 150]	–	< 7.35
O=S(=O)(c1ccccc1)c1n[nH]c2ccc(OCCN3CCOCC3)cc12 [Example 10, 3-Benzenesulfonyl-5-(2-morpholin-4-yl-ethoxy)-1H-indazole]	–	< 7.35
